Paper PMC8161486 (ACS Central Science, 2021)
“Also recorded” adds a separate entry of the source. Read-outs that look alike come from different tables or passages of the source. Values belong to the compound of their own block, whether it stands above or below them.

Assays:
ENL YEATS domain [1] = molecular target: T1, ENL YEATS domain (Homo sapiens, UniProt Q03111); experiment: ENL-H3K27cr HTRF
T1 sequence (Q03111 1-148): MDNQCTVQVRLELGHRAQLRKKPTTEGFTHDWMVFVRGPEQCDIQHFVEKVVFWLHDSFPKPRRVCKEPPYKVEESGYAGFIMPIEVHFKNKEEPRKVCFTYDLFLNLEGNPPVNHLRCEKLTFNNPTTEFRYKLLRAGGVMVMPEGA

ENL(YEATS)-HiBiT = ENL(YEATS)-HiBiT (Homo sapiens, UniProt Q03111); experiment: ENL; assay type: cell-based
JURKAT = experiment: Cell proliferation assay; assay type: cell-based; conditions: JURKAT (T-cell ALL), ENL-insensitive
HB11;19 = experiment: Cell proliferation assay; assay type: cell-based; conditions: HB11;19 (MLL-ENL fusion), ∼2 weeks
MV4;11 cells [2] = experiment: 72 h viability assay; assay type: cell-based, human; conditions: MV4;11, 72 h
MOLM-13 = experiment: Cell proliferation assay; assay type: cell-based; conditions: MOLM-13 (MLL-AF9 AML), ∼2 weeks
AF9 YEATS domain = AF9 YEATS domain (Homo sapiens, UniProt P42568); experiment: AF9 YEATS HTRF; assay type: binding
Chain of AF9 YEATS domain (P42568 1-138 limits assumed): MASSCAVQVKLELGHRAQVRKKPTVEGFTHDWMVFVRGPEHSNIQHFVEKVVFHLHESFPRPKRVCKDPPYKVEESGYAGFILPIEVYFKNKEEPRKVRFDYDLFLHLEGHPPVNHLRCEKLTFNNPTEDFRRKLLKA

ENL YEATS domain [3] = molecular target: T1, ENL YEATS domain; conditions: 1 μM
MV4;11 cells [4] = experiment: qRT-PCR transcript abundance in MV4; assay type: cell-based, human
[5] = molecular target: YSK4 (also known as MAP3K19) (Homo sapiens, UniProt Q56UN5); experiment: KdELECT affinity determination of scanMAX hits; assay type: binding
Chain of YSK4 (also known as MAP3K19) (Q56UN5 whole entry): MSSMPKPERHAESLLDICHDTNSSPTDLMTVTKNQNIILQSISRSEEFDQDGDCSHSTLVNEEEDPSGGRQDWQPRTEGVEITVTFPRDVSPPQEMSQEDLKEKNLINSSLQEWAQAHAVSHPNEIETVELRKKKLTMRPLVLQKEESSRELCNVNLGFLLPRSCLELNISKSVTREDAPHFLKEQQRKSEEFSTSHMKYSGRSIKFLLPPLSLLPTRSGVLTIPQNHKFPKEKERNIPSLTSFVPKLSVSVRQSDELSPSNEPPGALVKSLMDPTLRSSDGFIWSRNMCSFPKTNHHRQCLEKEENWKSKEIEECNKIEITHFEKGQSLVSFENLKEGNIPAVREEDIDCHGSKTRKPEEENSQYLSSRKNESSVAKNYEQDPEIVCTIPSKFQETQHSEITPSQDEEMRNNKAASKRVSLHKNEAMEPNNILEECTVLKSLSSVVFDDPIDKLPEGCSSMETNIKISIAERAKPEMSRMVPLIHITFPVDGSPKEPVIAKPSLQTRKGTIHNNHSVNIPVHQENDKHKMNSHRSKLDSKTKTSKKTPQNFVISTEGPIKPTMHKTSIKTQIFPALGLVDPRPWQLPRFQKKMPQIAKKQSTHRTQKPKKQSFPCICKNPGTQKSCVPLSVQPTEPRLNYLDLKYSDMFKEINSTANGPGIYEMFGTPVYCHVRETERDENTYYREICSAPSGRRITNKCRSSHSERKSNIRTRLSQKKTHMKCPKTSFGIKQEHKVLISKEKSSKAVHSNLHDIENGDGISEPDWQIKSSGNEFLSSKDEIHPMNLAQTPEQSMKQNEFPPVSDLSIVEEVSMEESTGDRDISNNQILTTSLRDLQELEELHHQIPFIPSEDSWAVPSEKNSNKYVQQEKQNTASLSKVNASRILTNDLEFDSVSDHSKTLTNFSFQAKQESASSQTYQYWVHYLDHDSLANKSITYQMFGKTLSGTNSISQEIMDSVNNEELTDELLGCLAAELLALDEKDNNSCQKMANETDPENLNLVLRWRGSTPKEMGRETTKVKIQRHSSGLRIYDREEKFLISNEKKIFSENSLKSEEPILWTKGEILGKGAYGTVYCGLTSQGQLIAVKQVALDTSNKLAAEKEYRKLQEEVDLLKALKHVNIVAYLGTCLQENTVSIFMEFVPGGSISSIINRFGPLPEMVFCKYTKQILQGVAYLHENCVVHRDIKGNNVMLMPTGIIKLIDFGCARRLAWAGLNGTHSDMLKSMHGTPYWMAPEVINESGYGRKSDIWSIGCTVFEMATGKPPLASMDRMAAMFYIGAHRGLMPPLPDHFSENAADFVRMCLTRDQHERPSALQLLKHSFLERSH

MV4;11 = experiment: Cell proliferation assay; assay type: cell-based, human; conditions: MV4;11 (MLL-AF4 AML), ∼2 weeks
YEATS4 YEATS domain = YEATS4 YEATS domain (Homo sapiens, UniProt O95619); experiment: SPR, biotinylated YEATS4 YEATS; assay type: binding
Chain of YEATS4 YEATS domain (O95619 13-158): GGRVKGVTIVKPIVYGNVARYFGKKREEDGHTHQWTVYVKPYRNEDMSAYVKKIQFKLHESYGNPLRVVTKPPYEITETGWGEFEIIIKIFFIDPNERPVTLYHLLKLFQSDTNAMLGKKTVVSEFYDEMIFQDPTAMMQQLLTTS

786-O = experiment: Cell proliferation assay; assay type: cell-based; conditions: 786-O (renal cell carcinoma), 10 μM
32 bromodomains = experiment: BROMOscan profiling; conditions: 10 μM
468 kinases = experiment: KINOMEscan profiling; conditions: 10 μM, 468 kinases tested
ENL [6] = molecular target: T2, ENL (Homo sapiens, UniProt Q03111); experiment: ENL ChIP-qPCR / ChIP-seq in MV4
T2 sequence (Q03111 1-559): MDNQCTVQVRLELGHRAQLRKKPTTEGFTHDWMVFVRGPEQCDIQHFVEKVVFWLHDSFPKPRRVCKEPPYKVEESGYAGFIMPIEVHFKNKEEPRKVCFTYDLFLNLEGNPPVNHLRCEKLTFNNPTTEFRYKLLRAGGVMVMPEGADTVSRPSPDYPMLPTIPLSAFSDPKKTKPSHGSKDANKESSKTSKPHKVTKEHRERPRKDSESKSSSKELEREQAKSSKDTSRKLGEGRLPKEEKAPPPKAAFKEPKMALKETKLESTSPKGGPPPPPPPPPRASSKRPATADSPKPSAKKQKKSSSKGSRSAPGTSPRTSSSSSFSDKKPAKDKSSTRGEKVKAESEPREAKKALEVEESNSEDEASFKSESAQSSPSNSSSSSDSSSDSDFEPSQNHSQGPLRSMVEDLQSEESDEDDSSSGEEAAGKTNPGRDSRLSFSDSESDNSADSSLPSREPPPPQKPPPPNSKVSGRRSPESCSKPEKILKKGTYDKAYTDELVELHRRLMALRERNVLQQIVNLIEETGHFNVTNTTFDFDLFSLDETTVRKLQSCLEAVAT

HL-60 = experiment: Cell proliferation assay; assay type: cell-based; conditions: HL-60 (MLL wild-type AML), ENL-insensitive
BRD4 BD1 = BRD4 BD1 (Homo sapiens, UniProt O60885); experiment: BRD4 BD1 HTRF counter-screen; assay type: binding
AF9(YEATS)-HiBiT = AF9(YEATS)-HiBiT (Homo sapiens, UniProt P42568); experiment: AF9; assay type: cell-based
Chain of AF9(YEATS)-HiBiT (P42568 1-138 limits assumed): as the sequence (P42568 1-138 limits assumed) above

OCI/AML-2 = experiment: Cell proliferation assay; assay type: cell-based; conditions: OCI/AML-2 (MLL-AF6 AML), ∼2 weeks
MV4;11 cells [7] = experiment: Quant-seq 3′ mRNA sequencing in MV4; assay type: cell-based, human; conditions: MV4;11, 4 h
MV4;11 cells [8] = experiment: Cell cycle analysis; assay type: cell-based, human; conditions: MV4;11, 72 h
YEATS2 YEATS domain = YEATS2 YEATS domain (Homo sapiens, UniProt Q9ULM3); experiment: Modified histone peptide array, YEATS2 YEATS; conditions: 10 and 50 μM
Chain of YEATS2 YEATS domain (Q9ULM3 200-345 limits assumed): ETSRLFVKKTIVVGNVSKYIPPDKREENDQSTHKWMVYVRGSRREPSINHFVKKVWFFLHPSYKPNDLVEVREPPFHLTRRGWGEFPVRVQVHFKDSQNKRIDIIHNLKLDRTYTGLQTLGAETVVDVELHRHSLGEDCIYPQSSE

MOLT-4 = experiment: Cell proliferation assay; assay type: cell-based; conditions: MOLT-4 (T-cell ALL), up to 10 μM
AF9 (V5) = AF9 (V5) (Homo sapiens, UniProt P42568); experiment: AF9-V5 degradation by immunoblot in MOLM-13 cells; assay type: cell-based; conditions: 4 h treatment
Chain of AF9 (V5) (P42568 whole entry): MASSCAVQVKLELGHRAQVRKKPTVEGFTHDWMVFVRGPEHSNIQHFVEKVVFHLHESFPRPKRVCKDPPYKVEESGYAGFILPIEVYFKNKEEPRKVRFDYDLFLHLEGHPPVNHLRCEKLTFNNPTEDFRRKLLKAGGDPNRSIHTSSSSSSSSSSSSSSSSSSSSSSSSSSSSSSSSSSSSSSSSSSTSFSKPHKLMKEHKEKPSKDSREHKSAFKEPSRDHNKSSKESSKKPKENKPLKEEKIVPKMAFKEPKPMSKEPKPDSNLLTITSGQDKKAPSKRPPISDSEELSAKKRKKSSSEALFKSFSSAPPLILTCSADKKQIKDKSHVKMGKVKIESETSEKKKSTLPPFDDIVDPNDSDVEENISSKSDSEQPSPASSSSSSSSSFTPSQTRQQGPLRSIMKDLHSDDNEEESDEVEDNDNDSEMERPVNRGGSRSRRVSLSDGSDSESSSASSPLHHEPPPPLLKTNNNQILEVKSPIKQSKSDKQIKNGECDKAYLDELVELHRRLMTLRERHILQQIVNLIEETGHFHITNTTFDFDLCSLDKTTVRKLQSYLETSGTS

ENL [9] = molecular target: T2, ENL; experiment: ENL degradation by immunoblot; assay type: cell-based; conditions: for DC50: read-out: ENL DC50, 4 h treatment
MV4;11 cells [10] = experiment: TMT-based whole proteome analysis of MV4; assay type: cell-based, human; conditions: 10 μM
[11] = ENL-H3K27cr HTRF IC50, purified compound

- activity against ENL YEATS (ENL YEATS domain [1]): complete ablation of activity
- IC50 (ENL YEATS domain [1]; [11]): > 50 µM
- EC50 (ENL(YEATS)-HiBiT): > 20 µM
Structure (SMILES): CC(C)N(C)C(=O)c1ccc2nc(-c3ccccc3)cn2c1 [compound 2, N-Isopropyl-N-methyl-2-phenylimidazo[1,2-a]pyridine-6-carboxamide]

- IC50 (ENL YEATS domain [1]; ENL YEATS HTRF IC50, purified compound): 0.23 µM
- IC50 (ENL YEATS domain [1]; [11]): 0.232 µM
- improvement in potency compared to the initial screening hit (ENL YEATS domain [1]; HTRF IC50 ratio): 30 fold
- EC50 (ENL(YEATS)-HiBiT): 1.5 µM
Structure (SMILES): CC(C)NC(=O)c1ccc2nc(-c3cccc(NS(=O)(=O)NCCc4c[nH]cn4)c3)cn2c1 [compound 7]

- IC50 (AF9 YEATS domain): 0.311 µM
- ENL recognition of acetyllysine on histone peptide arrays (ENL YEATS domain [3]): completely inhibited
- transcript abundance of HMGCR and HMGCS1 (SREBP targets, off-target effect) (MV4;11 cells [4]; MV4;11, most prominent at 10 μM): upregulation
- lower affinity for YSK4 than for ENL YEATS [5]: over 100 fold
- binding to the YEATS4 YEATS domain by SPR (YEATS4 YEATS domain): virtually no binding
- ENL ChIP-seq signal genome-wide (ENL [6]; MV4;11): bulk displacement of ENL from chromatin
- ENL ChIP-qPCR enrichment at ENL binding sites (HOXA10 gene body, MYB promoter) (ENL [6]; MV4;11, 4 h): dose-dependent eviction of ENL
- activity against BRD4 BD1 by HTRF (BRD4 BD1): inactive
- EC50 (AF9(YEATS)-HiBiT): 0.076 µM
- YEATS2 recognition of acetyllysine on histone peptide arrays (YEATS2 YEATS domain): minimal effects
Structure (SMILES): O=C(NC1CCC1)c1ccc2nc(-c3cccc(NS(=O)(=O)NCCN4CCCCC4)c3)cn2c1 [SR-0813, N-Cyclobutyl-2-(3-((N-(2-(piperidin-1-yl)ethyl)sulfamoyl)amino)phenyl)imidazo[1,2-a]pyridine-6-carboxamide]
- effect on cell growth (JURKAT): unaffected; also recorded: muted antiproliferative activity
- effect on cell growth (HB11;19): inhibited the growth
- effect on viability (MV4;11 cells [2]): minimal effects
- effect on cell growth (MOLM-13): inhibited the growth
- abundance of the ITGAM transcript (CD11b) (MV4;11 cells [4]; MV4;11): increased abundance
- transcript abundance of HOXA9, MEIS1 and MYC (MV4;11 cells [4]; MV4;11, from 3 h to at least 3 days, 1 and 10 μM): downregulated
- effect on cell growth (MV4;11): inhibited the growth
- effect on cell growth (786-O): neither the T-cell ALL cell line, MOLT-4, nor the renal cell carcinoma cell line, 786-O, were affected
- bromodomain off targets (BROMOscan, bromoMAX) (32 bromodomains): not a single bromodomain off target was identified
- number of kinases identified as potential off targets (KINOMEscan, scanMAX) (468 kinases): 4
- effect on cell growth (HL-60): unaffected; also recorded: muted antiproliferative activity
- effect on cell growth (OCI/AML-2): inhibited the growth
- expression of ENL target genes (3′ mRNA-seq) (MV4;11 cells [7]): strikingly selective suppression of ENL target genes
- global gene expression (3′ mRNA-seq) (MV4;11 cells [7]): did not elicit global changes in gene expression
- cell cycle distribution (MV4;11 cells [8]): decrease in the number of cells at the G2 stage of the cell cycle
- effect on cell growth (MOLT-4): neither the T-cell ALL cell line, MOLT-4, nor the renal cell carcinoma cell line, 786-O, were affected

- degradation of exogenously expressed AF9-V5 (AF9 (V5)): degraded
- time ENL degradation is sustained by a single dose (ENL [9]; 10 μM): 24 h
- time to maximal ENL degradation (ENL [9]; 10 μM, MV4;11 cells): ≤ 4 h
- DC50 (ENL [9]; MOLM-13 cells): 0.311 µM
- DC50 (ENL [9]; OCI/AML-2 cells): 1.65 µM
- off-target degradation of IKZF1 (MV4;11 cells [10]): weak off-target degradation
Structure (SMILES): O=C(COc1cccc2c1C(=O)N(C1CCC(=O)NC1=O)C2=O)NCCOCCOCCNS(=O)(=O)Nc1cccc(-c2cn3cc(C(=O)NC4CCC4)ccc3n2)c1 (stereo not drawn) [SR-1114, N-Cyclobutyl-2-(3-((N-(2-(2-(2-(2-((2-(2,6-dioxopiperidin-3-yl)-1,3-dioxoisoindolin-4-yl)oxy)acetamido)ethoxy)ethoxy)ethyl)sulfamoyl)amino)phenyl)imidazo[1,2-a]pyridine-6-carboxamide]
- change in ENL abundance across the proteome (MV4;11 cells [10]; 4 and 16 h): strongest change in abundance across the proteome
- abundance of ENL target genes (HOXA10, MYC, MYB, FLT3, ZEB2, SATB1) (MV4;11 cells [10]; 16 h): preferential suppression of multiple ENL target genes
- abundance of myeloid differentiation marker CD11b (MV4;11 cells [10]; 16 h): increased the abundance
